Source: patent US20250312323A1 (Cavion, Inc., priority 2018, published 2025)
Entries after “also recorded” stand apart in the source; their conditions may differ.

Assays:
Format in all cases: in vivo, human
[1] = Pharmacokinetics of CX-8998 immediate release capsules in healthy volunteers (Studies PN001, PN002); conditions: 2-18 mg dose range
[2] = tested on: patients with essential tremor; experiment: T-CALM: treatment-emergent adverse events, discontinuations, dosage reductions
[3] = tested on: patients with essential tremor; experiment: T-CALM: TETRAS performance subscale, independent video raters; conditions: Day 28
Text: Both sets of scores were statistically analyzed.

[4] = Pharmacokinetics of MR2 CX-8998 in fed versus fasted subjects; conditions: MR2 CX-8998, single dose 1×8 mg
[5] = N = 48, inadequate drug supply at Visit 4

- dose proportionality of plasma profiles [1]: dose proportional
- effect of fed vs fasted state on early absorption [4]: impacts early absorption
Compound: CC(C)c1ccc(CC(=O)N[C@H](C)c2ccc(OCC(F)(F)F)cn2)cc1 [CX-8998]
- Discontinuation due to Nervous System Disorders, subjects, percent ([2]; N = 48): (8%)
- Discontinuation due to Psychiatric Disorders, subjects, number ([2]; N = 48): 4
- Discontinuation due to Psychiatric Disorders, subjects, percent ([2]; N = 48): (8%)
- Dosage reduced during study, subjects, percent ([2]; N = 48): (8%)
- Dosage reduction due to adverse event, subjects, number ([2]; N = 48): 3
- Dosage reduction due to adverse event, subjects, percent ([2]; N = 48): (6%)
- Subjects with at least 1 event leading to discontinuation, number ([2]; N = 48): 8
- Subjects with at least 1 event leading to discontinuation, percent ([2]; N = 48): (17%)
- Dosage reduction due to other reasons, subjects, number [2, 5]: 1
- Dosage reduction due to other reasons, subjects, percent [2, 5]: (2%)^3
- TEAE Ear and Labyrinth Disorders (system organ class), subjects, number (%) ([2]; Safety Analysis Set, n = 48): 2 (4%)
- TEAE Gastrointestinal Disorders (system organ class), subjects, number (%) ([2]; Safety Analysis Set, n = 48): 9 (19%)
- TEAE Infections and Infestations (system organ class), subjects, number (%) ([2]; Safety Analysis Set, n = 48): 4 (8%)
- TEAE Nervous System Disorders (system organ class), subjects, number (%) ([2]; Safety Analysis Set, n = 48): 20 (42%)
- TEAE Psychiatric Disorders (system organ class), subjects, number (%) ([2]; Safety Analysis Set, n = 48): 12 (52%)
- Dosage reduction due to TEAEs, patients ([2]; T-CALM): 6%
- Serious adverse events (alcohol withdrawal syndrome, major depression, suicidal ideation), deemed unrelated to study drug ([2]; T-CALM): one patient
- patients with at least 1 TEAE ([2]; T-CALM): 58%
- Discontinuation due to adverse events (TEAEs), patients n (%) ([2]; T-CALM, N=48): 8 (17%)
- TEAE Abnormal dreams, n (%) ([2]; T-CALM, n = 48): 2 (4%)
- TEAE Disturbance in attention, n (%) ([2]; T-CALM, n = 48): 2 (4%)
- TEAE Dizziness, n (%) ([2]; T-CALM, n = 48): 10 (21%)
- TEAE Dry mouth, n (%) ([2]; T-CALM, n = 48): 2 (4%)
- TEAE Dysgeusia, n (%) ([2]; T-CALM, n = 48): 2 (4%)
- TEAE Ear and Labyrinth Disorders, n (%) ([2]; T-CALM, n = 48): 2 (4%)
- TEAE Euphoric mood, n (%) ([2]; T-CALM, n = 48): 3 (6%)
- TEAE Gastrointestinal Disorders, n (%) ([2]; T-CALM, n = 48): 9 (19%)
- TEAE Hallucination, n (%) ([2]; T-CALM, n = 48): 2 (4%)
- TEAE Headache, n (%) ([2]; T-CALM, n = 48): 4 (8%)
- TEAE Hypesthesia, n (%) ([2]; T-CALM, n = 48): 0
- TEAE Infections and Infestations, n (%) ([2]; T-CALM, n = 48): 4 (8%)
- TEAE Insomnia, n (%) ([2]; T-CALM, n = 48): 3 (6%)
- TEAE Nausea, n (%) ([2]; T-CALM, n = 48): 1 (2%)
- TEAE Nervous System Disorders, n (%) ([2]; T-CALM, n = 48): 20 (42%)
- TEAE Paraesthesia, n (%) ([2]; T-CALM, n = 48): 2 (4%)
- TEAE Somnolence, n (%) ([2]; T-CALM, n = 48): 1 (2%)
- TEAE Tinnitus, n (%) ([2]; T-CALM, n = 48): 2 (4%)
- TEAE Urinary Tract Infection, n (%) ([2]; T-CALM, n = 48): 2 (4%)
- TEAE Vomiting, n (%) ([2]; T-CALM, n = 48): 0
- safety and tolerability in ET patients ([2]; T-CALM, up to 10 mg BID): safe and well tolerated
- Adverse Event (MedDRA Preferred Term) leading to dosage reduction ([2]; individual subjects 26-001 (10 to 8 mg BID), 31-023 (8 to 4 mg BID), 33-004 (4 to 2 mg BID), one line each, considered related to study drug): Anxiety; also recorded: Electrocardiogram; also recorded: Headache
- AE Any Event, percent of subjects ([2]; onset in study week 1): (40%)
- AE Central Nervous System Disorders, number of subjects ([2]; onset in study week 1): 16
- AE Central Nervous System Disorders, percent of subjects ([2]; onset in study week 1): (33%)
- AE Ear and Labyrinth Disorders, number of subjects ([2]; onset in study week 1): 2
- AE Ear and Labyrinth Disorders, percent of subjects ([2]; onset in study week 1): (4%)
- AE Eye Disorders, number of subjects ([2]; onset in study week 1): 1
- AE Eye Disorders, percent of subjects ([2]; onset in study week 1): (2%)
- AE Gastrointestinal Disorders, number of subjects ([2]; onset in study week 1): 7
- AE Gastrointestinal Disorders, percent of subjects ([2]; onset in study week 1): (15%)
- AE Infections and Infestations, number of subjects ([2]; onset in study week 1): 0
- AE Injury, Poisoning and Procedural Complications, percent of subjects ([2]; onset in study week 1): (2%)
- AE Investigations, number of subjects ([2]; onset in study week 1): 1
- AE Investigations, percent of subjects ([2]; onset in study week 1): (2%)
- AE Metabolism and Nutrition Disorders, number of subjects ([2]; onset in study week 1): 1
- AE Metabolism and Nutrition Disorders, percent of subjects ([2]; onset in study week 1): (2%)
- AE Musculoskeletal and Connective Tissue Disorders, number of subjects ([2]; onset in study week 1): 1
- AE Musculoskeletal and Connective Tissue Disorders, percent of subjects ([2]; onset in study week 1): (2%)
- AE Neoplasms, number of subjects ([2]; onset in study week 1): 1
- AE Neoplasms, percent of subjects ([2]; onset in study week 1): (2%)
- AE Psychiatric Disorders, number of subjects ([2]; onset in study week 1): 8
- AE Psychiatric Disorders, percent of subjects ([2]; onset in study week 1): (17%)
- AE Respiratory, Thoracic and Mediastinal Disorders, percent of subjects ([2]; onset in study week 1): (2%)
- AE Skin and Subcutaneous Tissue Disorders, number of subjects ([2]; onset in study week 1): 1
- AE Skin and Subcutaneous Tissue Disorders, percent of subjects ([2]; onset in study week 1): (2%)
- AE Vascular Disorders, number of subjects ([2]; onset in study week 1): 0
- AE Any Event, percent of subjects ([2]; onset in study week 2): (21%)
- AE Central Nervous System Disorders, number of subjects ([2]; onset in study week 2): 4
- AE Central Nervous System Disorders, percent of subjects ([2]; onset in study week 2): (8%)
- AE Ear and Labyrinth Disorders, number of subjects ([2]; onset in study week 2): 0
- AE Eye Disorders, number of subjects ([2]; onset in study week 2): 0
- AE Gastrointestinal Disorders, number of subjects ([2]; onset in study week 2): 1
- AE Gastrointestinal Disorders, percent of subjects ([2]; onset in study week 2): (2%)
- AE Infections and Infestations, number of subjects ([2]; onset in study week 2): 2
- AE Infections and Infestations, percent of subjects ([2]; onset in study week 2): (4%)
- AE Investigations, number of subjects ([2]; onset in study week 2): 1
- AE Investigations, percent of subjects ([2]; onset in study week 2): (2%)
- AE Metabolism and Nutrition Disorders, number of subjects ([2]; onset in study week 2): 0
- AE Musculoskeletal and Connective Tissue Disorders, number of subjects ([2]; onset in study week 2): 1
- AE Musculoskeletal and Connective Tissue Disorders, percent of subjects ([2]; onset in study week 2): (2%)
- AE Neoplasms, number of subjects ([2]; onset in study week 2): 0
- AE Psychiatric Disorders, number of subjects ([2]; onset in study week 2): 2
- AE Psychiatric Disorders, percent of subjects ([2]; onset in study week 2): (4%)
- AE Skin and Subcutaneous Tissue Disorders, number of subjects ([2]; onset in study week 2): 0
- AE Vascular Disorders, number of subjects ([2]; onset in study week 2): 1
- AE Vascular Disorders, percent of subjects ([2]; onset in study week 2): (2%)
- AE Any Event, percent of subjects ([2]; onset in study week 3): (17%)
- AE Central Nervous System Disorders, number of subjects ([2]; onset in study week 3): 1
- AE Central Nervous System Disorders, percent of subjects ([2]; onset in study week 3): (2%)
- AE Ear and Labyrinth Disorders, number of subjects ([2]; onset in study week 3): 0
- AE Eye Disorders, number of subjects ([2]; onset in study week 3): 0
- AE Gastrointestinal Disorders, number of subjects ([2]; onset in study week 3): 1
- AE Gastrointestinal Disorders, percent of subjects ([2]; onset in study week 3): (2%)
- AE Infections and Infestations, number of subjects ([2]; onset in study week 3): 2
- AE Infections and Infestations, percent of subjects ([2]; onset in study week 3): (4%)
- AE Injury, Poisoning and Procedural Complications, percent of subjects ([2]; onset in study week 3): (2%)
- AE Investigations, number of subjects ([2]; onset in study week 3): 1
- AE Investigations, percent of subjects ([2]; onset in study week 3): (2%)
- AE Metabolism and Nutrition Disorders, number of subjects ([2]; onset in study week 3): 1
- AE Metabolism and Nutrition Disorders, percent of subjects ([2]; onset in study week 3): (2%)
- AE Musculoskeletal and Connective Tissue Disorders, number of subjects ([2]; onset in study week 3): 1
- AE Musculoskeletal and Connective Tissue Disorders, percent of subjects ([2]; onset in study week 3): (2%)
- AE Neoplasms, number of subjects ([2]; onset in study week 3): 0
- AE Psychiatric Disorders, number of subjects ([2]; onset in study week 3): 3
- AE Psychiatric Disorders, percent of subjects ([2]; onset in study week 3): (6%)
- AE Respiratory, Thoracic and Mediastinal Disorders, percent of subjects ([2]; onset in study week 3): (2%)
- AE Skin and Subcutaneous Tissue Disorders, number of subjects ([2]; onset in study week 3): 0
- AE Vascular Disorders, number of subjects ([2]; onset in study week 3): 0
- AE Any Event, percent of subjects ([2]; onset in study week 4): (4%)
- AE Central Nervous System Disorders, number of subjects ([2]; onset in study week 4): 0
- AE Ear and Labyrinth Disorders, number of subjects ([2]; onset in study week 4): 0
- AE Eye Disorders, number of subjects ([2]; onset in study week 4): 0
- AE Gastrointestinal Disorders, number of subjects ([2]; onset in study week 4): 0
- AE Infections and Infestations, number of subjects ([2]; onset in study week 4): 0
- AE Investigations, number of subjects ([2]; onset in study week 4): 1
- AE Investigations, percent of subjects ([2]; onset in study week 4): (2%)
- AE Metabolism and Nutrition Disorders, number of subjects ([2]; onset in study week 4): 1
- AE Metabolism and Nutrition Disorders, percent of subjects ([2]; onset in study week 4): (2%)
- AE Musculoskeletal and Connective Tissue Disorders, number of subjects ([2]; onset in study week 4): 0
- AE Neoplasms, number of subjects ([2]; onset in study week 4): 0
- AE Psychiatric Disorders, number of subjects ([2]; onset in study week 4): 2
- AE Psychiatric Disorders, percent of subjects ([2]; onset in study week 4): (4%)
- AE Skin and Subcutaneous Tissue Disorders, number of subjects ([2]; onset in study week 4): 0
- AE Vascular Disorders, number of subjects ([2]; onset in study week 4): 0
- AE Any Event, percent of subjects ([2]; onset in study week >4): (2%)
- AE Central Nervous System Disorders, number of subjects ([2]; onset in study week >4): 1
- AE Central Nervous System Disorders, percent of subjects ([2]; onset in study week >4): (2%)
- AE Ear and Labyrinth Disorders, number of subjects ([2]; onset in study week >4): 0
- AE Eye Disorders, number of subjects ([2]; onset in study week >4): 0
- AE Gastrointestinal Disorders, number of subjects ([2]; onset in study week >4): 0
- AE Infections and Infestations, number of subjects ([2]; onset in study week >4): 0
- AE Investigations, number of subjects ([2]; onset in study week >4): 0
- AE Metabolism and Nutrition Disorders, number of subjects ([2]; onset in study week >4): 0
- AE Musculoskeletal and Connective Tissue Disorders, number of subjects ([2]; onset in study week >4): 0
- AE Neoplasms, number of subjects ([2]; onset in study week >4): 0
- AE Psychiatric Disorders, number of subjects ([2]; onset in study week >4): 0
- AE Skin and Subcutaneous Tissue Disorders, number of subjects ([2]; onset in study week >4): 0
- AE Vascular Disorders, number of subjects ([2]; onset in study week >4): 0
- LS mean (±SE) change from baseline in TETRAS-PS scored by independent video raters (primary endpoint) [3]: −1.8±0.81
- effect of fed state on overall exposure as measured by AUC [4]: does not appear to significantly impact overall exposure
- effect of fed vs fasted state on late absorption [4]: does not appear to significantly impact late absorption
